Results reported in publication PMC4584933, “Establishing the pig as a large animal model for vaccine development against human cancer” (Frontiers in Genetics, 2015).

test system: PBMCs; assay: In vitro peptide stimulation of porcine PBMCs, IFN-γ release assay (ELISA); assay type: cell-based, pig; parameters: key to T cell response: “x” indicates that a response was found to this given peptide at least once; conditions: PBMCs of immunized pigs, 2 × 10^5/well, 5 μg/ml peptide, 67.5–70.0 h, IFN-γ ELISA; response = 2-fold increase vs day -2 and at least 25 pg/ml IFN-γ, found at least once; SLA restriction not included

Sequence	T cell response
TYMPPAHRNF [IDO124, porcine IDO-derived 9-11mer peptide]	x
MDNSWKIFEEY [IDO76, porcine IDO-derived 9-11mer peptide]	x

test system: SLA-3*04:01; assay: Peptide-MHC class I complex stability, scintillation proximity assay (SPA); parameters: species or system pig; conditions: biotinylated recombinant SLA heavy chain, 125I-β2m, excess unlabeled β2m, read every 40 min, number only if t1/2 ≥ 0.5 h, '-' = not stably binding
Method: (§1) The stability of the selected 198 peptides in complex with relevant SLA class I molecules and β2m was determined using a scintillation proximity assay (SPA), as previously described (Harndahl et al., [2011]). Briefly, biotinylated recombinant MHC class I heavy chains were attached to a streptavidin-coated scintillation microplate together with iodinated (^125I) β2m and candidate peptide resulting in a scintillation signal, which was consecutively measured every 40 min by a scintillation plate counter. The duration of this signal is directly correlated to the stability of the peptide-MHC class I-β2m complex under dissociating conditions and in the presence of excess unlabeled β2m (Harndahl et al., [2011]). Peptides with a half-life ≥ 0.5 h were selected as stable binders.

Sequence	Binder (t1/2 ≥ 0.5 h): half-life of peptide-SLA-3*04:01 complex
KGFFLVSLLV [IDO50, porcine IDO-derived 9-11mer peptide]	- (t1/2 (hours) is listed for each of the stably binding peptides (t1/2 ≥ 0.5 h))
MQRLAHLVL [IDO78, porcine IDO-derived 9-11mer peptide]	- (t1/2 (hours) is listed for each of the stably binding peptides (t1/2 ≥ 0.5 h))
QEMRTYMPP [IDO101, porcine IDO-derived 9-11mer peptide]	- (t1/2 (hours) is listed for each of the stably binding peptides (t1/2 ≥ 0.5 h))
ANRISAFGYL [RhoC3, porcine RhoC-derived 9-11mer peptide]	- (t1/2 (hours) is listed for each of the stably binding peptides (t1/2 ≥ 0.5 h))
NKRRRGCPI [RhoC41, porcine RhoC-derived 9-11mer peptide]	- (t1/2 (hours) is listed for each of the stably binding peptides (t1/2 ≥ 0.5 h))
MTYKNMDILFS [IDO82, porcine IDO-derived 9-11mer peptide]	- (t1/2 (hours) is listed for each of the stably binding peptides (t1/2 ≥ 0.5 h))
KTVRGTTVRSL [IDO60, porcine IDO-derived 9-11mer peptide]	- (t1/2 (hours) is listed for each of the stably binding peptides (t1/2 ≥ 0.5 h))
KMQRLAHLVL [IDO57, porcine IDO-derived 9-11mer peptide]	- (t1/2 (hours) is listed for each of the stably binding peptides (t1/2 ≥ 0.5 h))
ANRISAFGYLE [RhoC4, porcine RhoC-derived 9-11mer peptide]	- (t1/2 (hours) is listed for each of the stably binding peptides (t1/2 ≥ 0.5 h))
RNIAIPYCKL [IDO108, porcine IDO-derived 9-11mer peptide]	- (t1/2 (hours) is listed for each of the stably binding peptides (t1/2 ≥ 0.5 h))
KHFCPNVPI [RhoC28, porcine RhoC-derived 9-11mer peptide]	- (t1/2 (hours) is listed for each of the stably binding peptides (t1/2 ≥ 0.5 h))
YDRLRPLSYPD [RhoC57, porcine RhoC-derived 9-11mer peptide]	- (t1/2 (hours) is listed for each of the stably binding peptides (t1/2 ≥ 0.5 h))
KDPSGPMTY [IDO47, porcine IDO-derived 9-11mer peptide]	- (t1/2 (hours) is listed for each of the stably binding peptides (t1/2 ≥ 0.5 h))
RNFLHSLESG [IDO106, porcine IDO-derived 9-11mer peptide]	0.5 h
RNYHLQIVT [IDO110, porcine IDO-derived 9-11mer peptide]	- (t1/2 (hours) is listed for each of the stably binding peptides (t1/2 ≥ 0.5 h))
KRRRGCPIL [RhoC33, porcine RhoC-derived 9-11mer peptide]	- (t1/2 (hours) is listed for each of the stably binding peptides (t1/2 ≥ 0.5 h))
KLFFNVLRIYL [IDO54, porcine IDO-derived 9-11mer peptide]	- (t1/2 (hours) is listed for each of the stably binding peptides (t1/2 ≥ 0.5 h))

Sequence	Binder (t1/2 ≥ 0.5 h): half-life of peptide-SLA-3*04:01 complex
KEGVREVFEM [RhoC27, porcine RhoC-derived 9-11mer peptide]	- (t1/2 (hours) is listed for each of the stably binding peptides (t1/2 ≥ 0.5 h))
KNKRRRGCPIL [RhoC32, porcine RhoC-derived 9-11mer peptide]	- (t1/2 (hours) is listed for each of the stably binding peptides (t1/2 ≥ 0.5 h))
KHFCPNVPIIL [RhoC30, porcine RhoC-derived 9-11mer peptide]	- (t1/2 (hours) is listed for each of the stably binding peptides (t1/2 ≥ 0.5 h))
KHFCPNVPII [RhoC29, porcine RhoC-derived 9-11mer peptide]	- (t1/2 (hours) is listed for each of the stably binding peptides (t1/2 ≥ 0.5 h))
KNMDILFSFPG [IDO59, porcine IDO-derived 9-11mer peptide]	- (t1/2 (hours) is listed for each of the stably binding peptides (t1/2 ≥ 0.5 h))
RKNKRRRGCPI [RhoC44, porcine RhoC-derived 9-11mer peptide]	- (t1/2 (hours) is listed for each of the stably binding peptides (t1/2 ≥ 0.5 h))
RLRPLSYPD [RhoC45, porcine RhoC-derived 9-11mer peptide]	- (t1/2 (hours) is listed for each of the stably binding peptides (t1/2 ≥ 0.5 h))
KLFFNVLRI [IDO52, porcine IDO-derived 9-11mer peptide]	- (t1/2 (hours) is listed for each of the stably binding peptides (t1/2 ≥ 0.5 h))
FNVLRIYLS [IDO27, porcine IDO-derived 9-11mer peptide]	- (t1/2 (hours) is listed for each of the stably binding peptides (t1/2 ≥ 0.5 h))
RNYHLQIVTK [IDO111, porcine IDO-derived 9-11mer peptide]	- (t1/2 (hours) is listed for each of the stably binding peptides (t1/2 ≥ 0.5 h))
ANWKKKDPS [IDO6, porcine IDO-derived 9-11mer peptide]	- (t1/2 (hours) is listed for each of the stably binding peptides (t1/2 ≥ 0.5 h))
HKMQRLAHLVL [IDO37, porcine IDO-derived 9-11mer peptide]	- (t1/2 (hours) is listed for each of the stably binding peptides (t1/2 ≥ 0.5 h))
KALLDITSSL [IDO46, porcine IDO-derived 9-11mer peptide]	- (t1/2 (hours) is listed for each of the stably binding peptides (t1/2 ≥ 0.5 h))
KTKEGVREVF [RhoC34, porcine RhoC-derived 9-11mer peptide]	- (t1/2 (hours) is listed for each of the stably binding peptides (t1/2 ≥ 0.5 h))
FNVLRIYLSG [IDO28, porcine IDO-derived 9-11mer peptide]	- (t1/2 (hours) is listed for each of the stably binding peptides (t1/2 ≥ 0.5 h))
RNIAIPYCKLS [IDO109, porcine IDO-derived 9-11mer peptide]	- (t1/2 (hours) is listed for each of the stably binding peptides (t1/2 ≥ 0.5 h))
YDRLRPLSY [RhoC56, porcine RhoC-derived 9-11mer peptide]	- (t1/2 (hours) is listed for each of the stably binding peptides (t1/2 ≥ 0.5 h))

test system: SLA-2*04:01; assay: as above; parameters: species or system pig; conditions: biotinylated recombinant SLA heavy chain, 125I-β2m, excess unlabeled β2m, read every 40 min, number only if t1/2 ≥ 0.5 h, '-' = not stably binding
Method: as §1

Sequence	Binder (t1/2 ≥ 0.5 h): half-life of peptide-SLA-2*04:01 complex
RNYHLQIVT [IDO110, porcine IDO-derived 9-11mer peptide]	- (t1/2 (hours) is listed for each of the stably binding peptides (t1/2 ≥ 0.5 h))
TYMPPAHRNF [IDO124, porcine IDO-derived 9-11mer peptide]	4.7 h
RNYHLQIVTK [IDO111, porcine IDO-derived 9-11mer peptide]	- (t1/2 (hours) is listed for each of the stably binding peptides (t1/2 ≥ 0.5 h))
MDNSWKIFEEY [IDO76, porcine IDO-derived 9-11mer peptide]	1.9 h
